Data on 40 compounds can be found in BindingDB's records for patent US20240034743 (Qilu Pharmaceutical, 2024).

Epidermal growth factor receptor [L858R,T790M,C797S], sequence (P00533 25-1210 T790M/C797S/L858R limits assumed): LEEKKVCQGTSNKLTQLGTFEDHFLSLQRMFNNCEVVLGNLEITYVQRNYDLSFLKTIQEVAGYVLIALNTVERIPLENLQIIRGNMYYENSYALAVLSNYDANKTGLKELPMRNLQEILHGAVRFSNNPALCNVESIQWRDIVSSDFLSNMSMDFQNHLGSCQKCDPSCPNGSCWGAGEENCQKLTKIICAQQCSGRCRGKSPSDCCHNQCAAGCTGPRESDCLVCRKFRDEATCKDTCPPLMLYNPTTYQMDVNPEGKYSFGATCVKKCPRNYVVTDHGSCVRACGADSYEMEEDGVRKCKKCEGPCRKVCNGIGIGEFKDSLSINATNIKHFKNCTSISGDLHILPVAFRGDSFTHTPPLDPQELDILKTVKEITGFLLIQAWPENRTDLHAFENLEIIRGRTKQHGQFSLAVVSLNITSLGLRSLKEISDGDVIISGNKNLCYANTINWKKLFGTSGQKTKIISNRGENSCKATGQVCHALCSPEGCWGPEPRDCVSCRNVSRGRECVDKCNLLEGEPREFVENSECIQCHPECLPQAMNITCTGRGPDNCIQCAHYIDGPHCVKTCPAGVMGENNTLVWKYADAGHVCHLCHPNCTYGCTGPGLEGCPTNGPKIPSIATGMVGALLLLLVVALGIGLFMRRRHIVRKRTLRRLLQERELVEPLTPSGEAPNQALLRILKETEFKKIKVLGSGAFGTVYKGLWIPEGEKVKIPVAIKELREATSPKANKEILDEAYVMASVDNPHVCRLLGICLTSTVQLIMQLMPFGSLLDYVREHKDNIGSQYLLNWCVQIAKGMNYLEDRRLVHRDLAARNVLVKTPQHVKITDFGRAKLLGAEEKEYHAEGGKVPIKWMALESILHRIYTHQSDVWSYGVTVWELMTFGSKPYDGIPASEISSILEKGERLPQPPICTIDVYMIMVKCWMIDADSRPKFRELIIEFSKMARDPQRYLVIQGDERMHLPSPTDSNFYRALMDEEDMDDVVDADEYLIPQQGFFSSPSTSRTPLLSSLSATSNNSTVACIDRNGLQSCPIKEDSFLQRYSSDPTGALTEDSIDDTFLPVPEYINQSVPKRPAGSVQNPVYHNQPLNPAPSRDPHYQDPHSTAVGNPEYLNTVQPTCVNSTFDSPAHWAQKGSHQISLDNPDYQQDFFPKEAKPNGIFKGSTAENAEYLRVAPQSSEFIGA

The first test concerns the target Epidermal growth factor receptor [L858R,T790M,C797S] (Homo sapiens, UniProt P00533, C797S/L858R/T790M). Briefly: Not found.
Excerpt: Not found
For `COc1cc2c(cc1Nc1ncc(Br)c(Nc3ccc4nccnc4c3P(C)(C)=O)n1)-c1cnn(C)c1CCN2C` [US20240034743, Compound 1], the IC50 was < 1 nM. The same measure, in the same setting: in the case of `COc1cc2c(cc1Nc1ncc(Br)c(Nc3ccc4nccnc4c3P(C)(C)=O)n1)-c1cnn(C)c1CN(C)C2=O` [US20240034743, Compound 9] it was < 1 nM; in that of `COc1cc2c(cc1Nc1ncc(Br)c(Nc3ccc4nccnc4c3P(C)(C)=O)n1)-c1cnn(C)c1CCN2C(C)=O` [US20240034743, Compound 15], < 1 nM; in that of `COc1cc2c(cc1Nc1ncc(C(F)(F)F)c(Nc3ccccc3P(C)(C)=O)n1)-c1cnn(C)c1CCN2C` [US20240034743, Compound 26], < 1 nM. The same measure, in the same setting: as for `COc1cc2c(cc1Nc1ncc(Br)c(Nc3ccccc3P(C)(C)=O)n1)-c1ccnn1CCN2C` [US20240034743, Compound 29], the figure is < 1 nM. The same measure, in the same setting: as for `COc1cc2c(cc1Nc1ncc(Br)c(Nc3ccccc3NS(C)(=O)=O)n1)-c1cnn(C)c1CCN2C` [US20240034743, Compound 32], the figure is < 1 nM. As to `COc1cc2c(cc1Nc1ncc(Br)c(Nc3ccccc3P(C)(C)=O)n1)-c1cnn(C)c1CCC2` [US20240034743, Compound 38], the IC50 is < 1 nM. As to `CCn1ncc2c1CCN(C)c1cc(OC)c(Nc3ncc(Br)c(Nc4ccccc4P(C)(C)=O)n3)cc1-2` [US20240034743, Compound 39], the concentration for half-maximal inhibition (IC50) was < 1 nM. The same measure, in the same setting: as for `COc1cc2c(cc1Nc1ncc(Br)c(Nc3ccccc3P(C)(C)=O)n1)-c1cnn(C)c1CC=C2` [US20240034743, Compound 40], the figure is < 1 nM; as for `COc1cc2c(cc1Nc1ncc(Br)c(Nc3ccccc3P(C)(C)=O)n1)-c1cnn(C)c1COC2` [US20240034743, Compound 46], < 1 nM. Regarding `COc1cc2c(cc1Nc1ncc(Br)c(Nc3ccccc3P(C)(C)=O)n1)-c1cnnn1CCN2C` [US20240034743, Compound 48], the IC50 was < 1 nM.

Turning to `COc1cc2c(cc1Nc1ncc(Br)c(Nc3ccccc3P(C)(C)=O)n1)-c1cnn(C)c1CNC2` [US20240034743, Compound 49], the IC50 was < 1 nM. Same read-out and setting: in the case of `COc1cc2c(cc1Nc1ncc(Br)c(Nc3ccccc3P(C)(C)=O)n1)-c1cnn(C)c1CCC2N` (stereo not given) [US20240034743, Compound 50] it was < 1 nM; in that of `COc1nc2c(cc1Nc1ncc(Br)c(Nc3ccccc3P(C)(C)=O)n1)-c1cnn(C)c1CCN2` [US20240034743, Compound 51], < 1 nM.

`COc1cc2c(cc1Nc1ncc(Br)c(Nc3ccccc3P(C)(C)=O)n1)-c1cnc(C)n1CCN2C` [US20240034743, Compound 55]: the IC50 was < 1 nM. Consider `COc1cc2c(cc1Nc1nc(Nc3ccccc3P(C)(C)=O)c3sccc3n1)-c1cnn(C)c1CCN2C` [US20240034743, Compound 58], for which the IC50 was < 1 nM. Same read-out and setting: in the case of `COc1cc2c(cc1Nc1ncc(Br)c(Nc3ccc4nccnc4c3P(C)(C)=O)n1)-c1cnn(C)c1CCN2C1CCN(C)CC1` [US20240034743, Compound 62] it was < 1 nM. Still for that read-out and setting: as for `COc1cc2c(cc1Nc1ncc(Br)c(Nc3ccccc3P(C)(C)=O)n1)-c1cnn(C)c1CCN2C1COC1` [US20240034743, Compound 64], the figure is < 1 nM; as for `COc1cc2c(cc1Nc1ncc(Br)c(Nc3ccccc3P(C)(C)=O)n1)-c1cnn(C)c1CCN2C1CN(CCF)C1` [US20240034743, Compound 69], < 1 nM. Still for that read-out and setting: as for `COc1cc2c(cc1Nc1ncc(Br)c(Nc3ccccc3P(C)(C)=O)n1)-c1cnn(C)c1CCN2CC(F)(F)F` [US20240034743, Compound 73], the figure is < 1 nM; as for `COc1cc2c(cc1Nc1ncc(Br)c(Nc3ccc4nccnc4c3P(C)(C)=S)n1)-c1cnn(C)c1CCN2C1CCN(C)CC1` [US20240034743, Compound 76], < 1 nM; as for `COc1nc2c(cc1Nc1ncc(Br)c(Nc3ccccc3P(C)(C)=O)n1)-c1cnn(C)c1CCN2C` [US20240034743, Compound 79], < 1 nM. Turning to `COc1cc2c(cc1Nc1ncc(Br)c(Nc3ccc4nccnc4c3P(C)(C)=O)n1)-c1cnn(C)c1CCN2C1CCCN(C)C1` (stereo not given) [US20240034743, Compound 84], the IC50 was < 1 nM. On the same count and under the same terms, as for `COc1cc2c(cc1Nc1ncc(Br)c(Nc3ccc4nccnc4c3P(C)(C)=O)n1)-c1cnn(C)c1CCN2C1CCOCC1` [US20240034743, Compound 88], the figure is < 1 nM. In the case of `COc1cc2c(cc1Nc1ncc(Br)c(Nc3ccc4nccnc4c3P(C)(C)=O)n1)-c1cnn(C)c1CCN2C1CC2(C1)CN(C(C)C)C2` [US20240034743, Compound 90], the concentration for half-maximal inhibition (IC50) was < 1 nM. Still for that read-out and setting: in the case of `COc1cc2c(cc1Nc1ncc(Br)c(Nc3ccccc3N(C(C)C)S(C)(=O)=O)n1)-c1cnn(C)c1CCN2C(C)C` [US20240034743, Compound 124] it was > 1000 nM; in that of `CNS(=O)(=O)c1ccccc1Nc1nc(Nc2cc3c(cc2OC)N(C(C)C)CCc2c-3cnn2C)ncc1Br` [US20240034743, Compound 127], > 1000 nM; in that of `COc1cc2c(cc1Nc1ncc(Br)c(Nc3cccc4c3NS(=O)(=O)C4)n1)-c1cnn(C)c1CCN2C(C)C` [US20240034743, Compound 132], < 1 nM.

For a further test, the target named is Epidermal growth factor receptor (Homo sapiens, UniProt P00533). Briefly: Not found.
Epidermal growth factor receptor, sequence (P00533 whole entry): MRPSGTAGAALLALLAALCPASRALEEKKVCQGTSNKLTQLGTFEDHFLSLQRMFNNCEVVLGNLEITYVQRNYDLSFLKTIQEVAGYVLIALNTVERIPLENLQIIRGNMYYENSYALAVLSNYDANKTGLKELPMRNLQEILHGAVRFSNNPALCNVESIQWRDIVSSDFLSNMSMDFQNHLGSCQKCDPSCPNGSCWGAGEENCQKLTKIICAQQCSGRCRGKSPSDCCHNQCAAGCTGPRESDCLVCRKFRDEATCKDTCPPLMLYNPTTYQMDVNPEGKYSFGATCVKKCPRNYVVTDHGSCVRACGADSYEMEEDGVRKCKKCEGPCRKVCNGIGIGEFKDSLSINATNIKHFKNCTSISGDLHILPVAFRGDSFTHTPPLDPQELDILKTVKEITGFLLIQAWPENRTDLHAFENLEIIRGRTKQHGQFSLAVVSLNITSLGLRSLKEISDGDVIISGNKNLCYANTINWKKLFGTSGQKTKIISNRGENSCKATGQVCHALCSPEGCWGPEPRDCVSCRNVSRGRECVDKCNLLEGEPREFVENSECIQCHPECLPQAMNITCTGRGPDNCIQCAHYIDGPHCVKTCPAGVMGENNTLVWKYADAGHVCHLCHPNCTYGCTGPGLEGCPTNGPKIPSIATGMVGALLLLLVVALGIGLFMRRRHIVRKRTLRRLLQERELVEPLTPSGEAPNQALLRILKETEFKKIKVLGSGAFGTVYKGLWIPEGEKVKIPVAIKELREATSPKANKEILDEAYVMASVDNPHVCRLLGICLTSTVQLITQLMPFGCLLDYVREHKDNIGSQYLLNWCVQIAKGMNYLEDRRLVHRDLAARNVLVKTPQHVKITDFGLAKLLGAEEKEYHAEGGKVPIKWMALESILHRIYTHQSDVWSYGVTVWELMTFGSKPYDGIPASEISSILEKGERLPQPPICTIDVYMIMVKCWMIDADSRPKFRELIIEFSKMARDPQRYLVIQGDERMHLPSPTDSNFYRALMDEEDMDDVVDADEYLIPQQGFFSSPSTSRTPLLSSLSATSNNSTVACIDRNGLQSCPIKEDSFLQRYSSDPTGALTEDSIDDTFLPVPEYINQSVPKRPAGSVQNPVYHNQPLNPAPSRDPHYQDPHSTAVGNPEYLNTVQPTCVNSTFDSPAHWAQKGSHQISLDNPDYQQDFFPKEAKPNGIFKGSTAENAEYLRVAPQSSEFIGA
Excerpt: Not found
In the case of `COc1cc2c(cc1Nc1ncc(Cl)c(Nc3ccc4nccnc4c3P(C)(C)=O)n1)-c1cnn(C)c1CCN2C` [US20240034743, Compound 13], the IC50 was < 1 nM. The same measure, in the same setting: as for `COc1cc2c(cc1Nc1ncc(Br)c(Nc3ccccc3P(C)(C)=O)n1)-c1cnn(C)c1CCN2C1CN(C)C1` [US20240034743, Compound 59], the figure is < 1 nM; as for `COc1cc2c(cc1Nc1ncc(Br)c(Nc3ccc4nccnc4c3P(C)(C)=O)n1)-c1cnn(C)c1CCN2C1CN(C(C)C)C1` [US20240034743, Compound 63], < 1 nM. With `COc1cc2c(cc1Nc1ncc(Br)c(Nc3ccc4nccnc4c3P(C)(C)=O)n1)-c1cnn(C)c1CCN2C1CN(CC2CC2)C1` [US20240034743, Compound 70], the IC50 was < 1 nM. On the same count and under the same terms, as for `COc1cc2c(cc1Nc1ncc(Br)c(Nc3ccc4nccnc4c3P(C)(C)=O)n1)-c1cnn(C)c1CCN2C1CC1` [US20240034743, Compound 74], the figure is < 1 nM. Same read-out and setting: in the case of `COc1cc2c(cc1Nc1ncc(C)c(Nc3ccc4nccnc4c3P(C)(C)=O)n1)-c1cnn(C)c1CCN2C(C)C` [US20240034743, Compound 85] it was < 1 nM. `COc1cc2c(cc1Nc1ncc(Br)c(Nc3ccc4nccnc4c3P(C)(C)=O)n1)-c1cnn(C)c1CCN2C1CC2(C1)CN(C)C2` [US20240034743, Compound 89]: the IC50 was < 1 nM. Regarding `COc1cc2c(cc1Nc1ncc(Br)c(Nc3ccc4nccnc4c3P(C)(C)=S)n1)-c1cnn(C)c1CCN2C1CC2(C1)CN(C)C2` [US20240034743, Compound 93], the IC50 is < 1 nM. On the same count and under the same terms, in the case of `COc1cc2c(cc1Nc1ncc(Br)c(Nc3ccc4nccnc4c3NS(C)(=O)=O)n1)-c1cnn(C)c1CCN2` [US20240034743, Compound 114] it was < 1 nM; in that of `COc1cc2c(cc1Nc1ncc(Br)c(Nc3ccc4nccnc4c3C(N)=O)n1)-c1cnn(C)c1CCN2C(C)C` [US20240034743, Compound 115], > 1000 nM. With `COc1cc2c(cc1Nc1ncc(Br)c(Nc3ccc4nccnc4c3NS(C)(=O)=O)n1)-c1cnn(C)c1CCN2CC(C)C` [US20240034743, Compound 133], the IC50 was < 1 nM. The same measure, in the same setting: as for `CCN1CCc2c(cnn2C)-c2cc(Nc3ncc(Br)c(Nc4ccc5nccnc5c4NS(C)(=O)=O)n3)c(OC)cc21` [US20240034743, Compound 139], the figure is < 1 nM.
